# Test results from ChEMBL document CHEMBL1201862, “PubChem BioAssay data set” (2004).
# Active and inactive are the calls of the source.
# Experiments:
# Cytochrome P450 3A4 = Cytochrome P450 3A4 (Homo sapiens, UniProt P08684);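 note: CYP3A4 tested as one member of a cytochrome P450 panel screen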
# Protein RecA = molecular target: T1, Protein RecA (Mycobacterium tuberculosis, UniProt P9WHJ3); assay: Fluorescence Cell-Free Homogeneous Dose Retest to Identify Inhibitors of RecA-Intein Splicing Activity. [Related pubchem assays (depositor defined):AID2097, AID2223, AID489010, AID492950]; assay type: functional
# T1 sequence (P9WHJ3 whole entry): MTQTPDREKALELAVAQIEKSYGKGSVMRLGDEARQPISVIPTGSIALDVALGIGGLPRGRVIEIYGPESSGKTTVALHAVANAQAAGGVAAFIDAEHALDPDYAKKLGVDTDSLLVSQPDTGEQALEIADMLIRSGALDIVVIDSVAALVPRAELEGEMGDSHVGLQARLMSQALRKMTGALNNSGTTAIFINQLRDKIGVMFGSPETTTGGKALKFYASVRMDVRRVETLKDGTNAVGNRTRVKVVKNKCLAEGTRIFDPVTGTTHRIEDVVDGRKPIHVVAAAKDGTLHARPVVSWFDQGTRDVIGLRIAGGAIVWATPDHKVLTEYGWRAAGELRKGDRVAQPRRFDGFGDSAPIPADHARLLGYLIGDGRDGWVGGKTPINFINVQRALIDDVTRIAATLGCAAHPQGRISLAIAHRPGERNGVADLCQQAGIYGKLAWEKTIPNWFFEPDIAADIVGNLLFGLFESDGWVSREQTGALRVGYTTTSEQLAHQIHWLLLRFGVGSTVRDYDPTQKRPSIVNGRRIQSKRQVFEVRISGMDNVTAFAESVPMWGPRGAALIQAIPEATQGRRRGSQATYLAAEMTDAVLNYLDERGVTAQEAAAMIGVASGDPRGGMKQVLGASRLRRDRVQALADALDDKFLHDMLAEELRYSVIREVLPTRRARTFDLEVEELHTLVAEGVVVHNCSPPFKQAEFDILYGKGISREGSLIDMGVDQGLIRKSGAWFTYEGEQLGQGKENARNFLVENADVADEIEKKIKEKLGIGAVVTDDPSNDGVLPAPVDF
# Cytochrome P450 2D6 = Cytochrome P450 2D6 (Homo sapiens, UniProt P10635);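 note: CYP2D6 member of a cytochrome P450 panel assay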
# Cytochrome P450 2C19 = Cytochrome P450 2C19 (Homo sapiens, UniProt P33261); assay: Cytochrome panel assay with activity outcomes. Panel member name: p450-cyp2c19 Compounds with AC50 equal or less than 10 uM are considered active; assay type: functional
# Cytochrome P450 2C9 = Cytochrome P450 2C9 (Homo sapiens, UniProt P11712)
# [1] = Luminescence Cell-Based Dose Response HTS to Identify Activators of Luciferase Translation or Activity in H4 […] Cells. [Related pubchem assays: 1829 (Project Summary), 1814 (Primary HTS)]; assay type: functional
# H4 = assay: Luminescence Cell-Based Dose Response HTS to Identify Activators of 5'UTR Stem-Loop Driven Prion Protein mRNA Translation in H4 Neuroglioblastoma Cells. [Related pubchem assays: 1829 (Project Summary), 1814 (Primary HTS)]; assay type: functional; details: Homo sapiens
# Cytochrome P450 1A2 = molecular target: T2, Cytochrome P450 1A2 (Homo sapiens, UniProt P05177);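 note: PubChem cytochrome P450 panel assay, CYP1A2 panel member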
# T2 sequence (P05177 whole entry): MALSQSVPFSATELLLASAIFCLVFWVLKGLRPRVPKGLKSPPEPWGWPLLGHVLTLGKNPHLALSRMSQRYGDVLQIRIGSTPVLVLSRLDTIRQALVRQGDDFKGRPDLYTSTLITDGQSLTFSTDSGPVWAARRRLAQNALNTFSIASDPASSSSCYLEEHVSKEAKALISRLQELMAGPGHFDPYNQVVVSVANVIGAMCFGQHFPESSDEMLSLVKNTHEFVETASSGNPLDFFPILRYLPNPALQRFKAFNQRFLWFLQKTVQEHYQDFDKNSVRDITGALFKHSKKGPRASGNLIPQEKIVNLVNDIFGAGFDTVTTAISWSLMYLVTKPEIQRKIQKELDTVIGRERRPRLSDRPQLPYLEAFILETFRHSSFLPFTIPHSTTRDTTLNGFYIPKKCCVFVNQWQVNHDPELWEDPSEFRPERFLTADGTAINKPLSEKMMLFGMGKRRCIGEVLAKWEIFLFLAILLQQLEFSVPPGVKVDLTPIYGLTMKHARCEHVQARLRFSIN
# cells = assay type: functional
# [2] = viability of uninfected HEp-2 cells – cell-based, HTS, cytotoxicity control for RSV inhibitor project, dose response (AID 2410); assay type: functional; details: human respiratory syncytial virus
# [3] = Luminescence Cell-Based Dose Confirmation HTS to Identify Activators of 5'UTR Stem-Loop Driven Alpha-Synuclein mRNA Translation in H4 Neuroglioblastoma Cells. [Related pubchem assays: 1829 (Project Summary), 1814 (Primary HTS)]; assay type: functional
# [4] = molecular target: T3, Corticotropin-releasing factor receptor 2/Corticotropin-releasing factor-binding protein (Homo sapiens, UniProt P24387+Q13324); assay: activators of CRF receptor 2 with binding protein – uHTS hits, confirmation (AID 602473); assay type: functional; details: read-out: EC50_Mean
# T3 sequence (Q13324 whole entry): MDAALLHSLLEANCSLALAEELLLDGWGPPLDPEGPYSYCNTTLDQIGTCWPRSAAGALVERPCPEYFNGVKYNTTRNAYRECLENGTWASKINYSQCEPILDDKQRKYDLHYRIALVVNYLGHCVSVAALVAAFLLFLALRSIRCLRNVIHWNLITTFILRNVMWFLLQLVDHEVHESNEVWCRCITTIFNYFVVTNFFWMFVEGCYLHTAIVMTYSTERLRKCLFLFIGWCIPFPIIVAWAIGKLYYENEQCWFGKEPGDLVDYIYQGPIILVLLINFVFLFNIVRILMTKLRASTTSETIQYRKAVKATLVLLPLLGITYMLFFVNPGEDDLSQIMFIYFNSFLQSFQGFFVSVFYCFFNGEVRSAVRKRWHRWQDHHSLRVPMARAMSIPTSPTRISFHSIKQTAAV
# T3 sequence (P24387 whole entry): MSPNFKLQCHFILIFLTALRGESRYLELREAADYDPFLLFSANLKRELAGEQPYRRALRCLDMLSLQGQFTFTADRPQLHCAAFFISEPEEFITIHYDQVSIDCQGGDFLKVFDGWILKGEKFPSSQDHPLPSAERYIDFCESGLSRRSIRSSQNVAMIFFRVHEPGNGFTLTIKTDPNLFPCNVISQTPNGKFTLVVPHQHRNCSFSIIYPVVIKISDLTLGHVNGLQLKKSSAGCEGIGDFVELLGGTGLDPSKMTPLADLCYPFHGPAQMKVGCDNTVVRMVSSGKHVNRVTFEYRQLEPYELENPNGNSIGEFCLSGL
# Chain of Cytochrome P450 3A4 (P08684 whole entry): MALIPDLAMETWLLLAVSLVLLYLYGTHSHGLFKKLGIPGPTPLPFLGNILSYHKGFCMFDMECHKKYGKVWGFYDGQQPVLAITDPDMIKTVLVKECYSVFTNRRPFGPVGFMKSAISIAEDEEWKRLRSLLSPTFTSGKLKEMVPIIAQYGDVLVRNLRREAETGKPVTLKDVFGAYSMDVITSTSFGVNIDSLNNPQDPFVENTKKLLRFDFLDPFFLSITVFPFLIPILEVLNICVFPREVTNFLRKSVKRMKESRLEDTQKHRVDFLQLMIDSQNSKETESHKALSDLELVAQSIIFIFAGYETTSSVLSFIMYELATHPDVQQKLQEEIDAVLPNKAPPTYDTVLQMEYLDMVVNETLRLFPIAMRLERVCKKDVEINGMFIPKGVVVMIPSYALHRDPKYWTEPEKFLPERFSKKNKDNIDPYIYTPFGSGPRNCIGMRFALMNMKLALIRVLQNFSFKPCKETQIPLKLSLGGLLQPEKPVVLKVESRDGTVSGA
# Chain of Cytochrome P450 2C9 (P11712 whole entry): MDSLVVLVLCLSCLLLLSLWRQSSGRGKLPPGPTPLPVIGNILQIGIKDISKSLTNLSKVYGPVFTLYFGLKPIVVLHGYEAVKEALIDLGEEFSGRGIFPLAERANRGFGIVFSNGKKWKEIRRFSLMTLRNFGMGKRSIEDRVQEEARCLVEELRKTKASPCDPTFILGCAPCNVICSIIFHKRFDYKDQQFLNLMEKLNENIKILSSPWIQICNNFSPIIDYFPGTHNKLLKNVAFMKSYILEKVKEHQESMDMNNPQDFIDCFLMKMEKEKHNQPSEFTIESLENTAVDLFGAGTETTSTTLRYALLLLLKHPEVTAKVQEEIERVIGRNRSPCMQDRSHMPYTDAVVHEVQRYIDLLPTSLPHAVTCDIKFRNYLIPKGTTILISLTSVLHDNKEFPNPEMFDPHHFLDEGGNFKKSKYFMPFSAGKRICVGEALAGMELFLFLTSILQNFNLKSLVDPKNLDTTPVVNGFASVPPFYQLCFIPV
# Chain of Cytochrome P450 2D6 (P10635 whole entry): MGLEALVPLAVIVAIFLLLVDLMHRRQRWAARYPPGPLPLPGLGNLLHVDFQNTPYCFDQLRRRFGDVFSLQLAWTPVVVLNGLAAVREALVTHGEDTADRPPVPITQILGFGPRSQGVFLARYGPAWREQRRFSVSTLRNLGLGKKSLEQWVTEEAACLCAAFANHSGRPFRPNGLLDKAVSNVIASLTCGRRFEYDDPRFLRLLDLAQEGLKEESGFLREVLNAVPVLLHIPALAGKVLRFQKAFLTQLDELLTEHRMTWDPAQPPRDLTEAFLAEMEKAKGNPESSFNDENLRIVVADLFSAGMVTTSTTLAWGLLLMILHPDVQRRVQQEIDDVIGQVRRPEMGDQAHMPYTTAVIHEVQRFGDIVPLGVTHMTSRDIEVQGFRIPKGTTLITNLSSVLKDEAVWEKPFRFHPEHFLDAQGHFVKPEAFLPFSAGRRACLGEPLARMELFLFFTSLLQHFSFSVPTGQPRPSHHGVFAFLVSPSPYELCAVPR
# Chain of Cytochrome P450 2C19 (P33261 whole entry): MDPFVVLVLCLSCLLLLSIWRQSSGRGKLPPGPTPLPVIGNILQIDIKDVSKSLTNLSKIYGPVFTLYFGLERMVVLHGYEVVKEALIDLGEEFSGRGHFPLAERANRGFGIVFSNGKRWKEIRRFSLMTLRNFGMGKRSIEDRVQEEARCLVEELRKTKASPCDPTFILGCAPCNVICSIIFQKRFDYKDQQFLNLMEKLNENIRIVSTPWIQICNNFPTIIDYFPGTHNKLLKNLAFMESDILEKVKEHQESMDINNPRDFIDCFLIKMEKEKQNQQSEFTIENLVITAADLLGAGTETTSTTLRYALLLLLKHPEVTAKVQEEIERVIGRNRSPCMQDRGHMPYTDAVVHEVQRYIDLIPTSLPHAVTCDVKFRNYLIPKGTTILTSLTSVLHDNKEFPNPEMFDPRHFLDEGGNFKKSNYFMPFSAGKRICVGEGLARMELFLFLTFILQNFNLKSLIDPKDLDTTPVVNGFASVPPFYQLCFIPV
structure (smiles),measurement,setting,value
Clc1ccccc1-c1cc(NCc2cccnc2)ncn1,AC50,Cytochrome P450 3A4,10 µM (inconclusive)
O=C(c1ccc(Cl)cc1)c1c[nH]c(C(=O)C(Cl)(Cl)Cl)c1,EC50,Protein RecA,> 380 µM (inconclusive)
COc1ccccc1-c1nc(N2CCOCC2)c2ccccc2n1,AC50,Cytochrome P450 3A4,15.8 µM (inconclusive)
same,AC50,Cytochrome P450 2D6,12.6 µM (inconclusive)
CCOC(=O)c1c(C)[nH]c2ccc3c(c12)CN1CCc2cc(OC)ccc2[C@@H]1O3,AC50,Cytochrome P450 3A4,2.51 µM (inconclusive)
same,AC50,Cytochrome P450 2C19,inconclusive
CCc1cc2c(nc1CC)CCN(CC/C(C)=N/OC[C@H]1O[C@H](c3ccccc3)C=C[C@@H]1Oc1ccc(OC)cc1)C2,AC50,Cytochrome P450 3A4,6.31 µM (inconclusive)
same,AC50,Cytochrome P450 2C9,6.31 µM (inconclusive)
same,AC50,Cytochrome P450 2D6,6.31 µM (inconclusive)
COc1cc([C@H](O)CO)ccc1O,AC50,Cytochrome P450 3A4,0.0316 µM (inconclusive)
N=C(NOC(=O)c1ccco1)c1ccccc1,EC50,[1],47.4 µM (active)
same,EC50,H4,> 120 µM (not active)
CCOc1c2ccc(C(=O)NCc3cc(C(F)(F)F)cc(C(F)(F)F)c3)cc2nn1C,AC50,Cytochrome P450 2C9,31.6 µM (inconclusive)
same,AC50,Cytochrome P450 2D6,20 µM (inconclusive)
same,AC50,Cytochrome P450 1A2,17.8 µM (inconclusive)
NC(=O)COC(=O)c1sc2ccccc2c1Cl,IC50,cells,37.6 µM (active)
Cc1ccc(-c2nnc(-c3ccc4ccccc4c3)o2)cc1,AC50,Cytochrome P450 3A4,6.31 µM (inconclusive)
same,AC50,Cytochrome P450 2C9,5.01 µM (inconclusive)
O=C(Nc1ccccc1N1CCOCC1)c1cnccn1,AC50,Cytochrome P450 3A4,14.1 µM (inconclusive)
same,AC50,Cytochrome P450 2C19; read-out: AC50,0.0398 µM (inconclusive)
COc1ccc(NC(=O)N2CC[C@@]3(CCCN(S(C)(=O)=O)C3)C2)cc1,AC50,Cytochrome P450 3A4,39.8 µM (inconclusive)
same,AC50,Cytochrome P450 1A2,25.1 µM (inconclusive)
COc1ccc(CCNc2cc(-c3ccccc3)nc3ncnn23)cc1,IC50,cells,2.48 µM (active)
O=C(CN1C(=O)c2cccc3cccc(c23)C1=O)N1CCCCCC1,AC50,Cytochrome P450 2C9,22.4 µM (inconclusive)
CNc1nc(-c2ccccc2OC)nc2ccccc12,AC50,Cytochrome P450 3A4,31.6 µM (inconclusive)
same,AC50,Cytochrome P450 2C19,inconclusive
CCCCOc1ccc(S(=O)(=O)NNC(=O)C2Cc3c(ccc4ccccc34)O2)cc1 (configuration not stated),CC50,[2],27.1 µM (active)
N#Cc1ccc(OCC(=O)Nc2ccncc2)cc1,CC50,[2],14.7 µM (active)
Clc1ccc(-c2cnc(Oc3ccccc3)nc2)cc1,EC50,[1],0.194 µM (active)
same,EC50,[3],2.63 µM (active)
CCC(=O)n1nc(-c2ccc(OC)cc2)nc1N,AC50,Cytochrome P450 2C9,0.0562 µM (inconclusive)
Cc1nc(NC(=O)CSc2cc(C)c3ccccc3n2)c(Cl)cc1Cl,CC50,[2],> 50 µM (active)
C[C@](O)(C(=O)Nc1ccc(S(=O)(=O)c2ccccc2)cc1)C(F)(F)F,AC50,Cytochrome P450 3A4,31.6 µM (inconclusive)
same,AC50,Cytochrome P450 2C19; read-out: AC50,6.31 µM (inconclusive)
same,AC50,Cytochrome P450 2D6,31.6 µM (inconclusive)
same,AC50,Cytochrome P450 1A2,39.8 µM (inconclusive)
O=C(C1CCCN(c2ncnc3c2nc2n3CCCCC2)C1)N1CCN(c2cccc(Cl)c2)CC1 (configuration not stated),CC50,[2],11.7 µM (active)
CCOc1ccc2[nH]c3ccc4nonc4c3c2c1,CC50,[2],> 50 µM (active)
COc1cccc(Cn2c(=O)c(-c3ccccc3)nc3cnc(N(C)C)nc32)c1,AC50,Cytochrome P450 2C9,15.8 µM (inconclusive)
same,AC50,Cytochrome P450 1A2,10 µM (inconclusive)
COc1ccc(CCNC(=O)c2ccc3c(c2)OCCO3)cc1,EC50,H4,66.7 µM (active)
CCOC(=O)c1nnn(-c2nc(OC)nc(N3CCCCC3)n2)c1-c1ccccc1,AC50,Cytochrome P450 2C9,28.2 µM (inconclusive)
same,AC50,Cytochrome P450 1A2,14.1 µM (inconclusive)
COc1ccc(-c2c(C)c3ccc(O)cc3oc2=O)cc1,CC50,[2],20.9 µM (active)
O=C(NC(C(=O)N/N=C/c1ccccc1)c1nnc(O)c2ccccc12)c1ccccc1 (configuration not stated),EC50,[4],5.14 µM (active)
N#Cc1nc(-c2ccco2)oc1N1CCN(c2cccc(Cl)c2)CC1,CC50,[2],31.8 µM (active)
OC(COc1ccccc1Cl)CN1CCN(CC(O)COc2ccccc2Cl)CC1 (configuration not stated),IC50,cells,17.3 µM (active)
O=[N+]([O-])c1ccccc1CSc1nc(O)c2nc[nH]c2n1,AC50,Cytochrome P450 3A4,3.98 µM (inconclusive)
Brc1c(CSc2nncc3ccccc23)nc2ccccn12,IC50,cells,5.43 µM (active)
CCOC(=O)c1nc(O)c2c3c(sc2n1)CC(C)CC3 (configuration not stated),IC50,cells,4.55 µM (active)
Cc1ccc(NCCC(=O)c2ccc(Cl)cc2)cc1C,AC50,Cytochrome P450 3A4,3.55 µM (inconclusive)
CCn1c(-c2ccc(-c3ccccc3)cc2)cnc1S,CC50,[2],18.9 µM (active)
CN(C)Cc1ccccc1-c1nc(NCc2cccs2)c2ccccc2n1,AC50,Cytochrome P450 3A4,6.31 µM (inconclusive)
CCCn1nnnc1NC(=O)c1ccc(C)cc1Cl,AC50,Cytochrome P450 2C9,0.2 µM (inconclusive)
same,AC50,Cytochrome P450 1A2,10 µM (inconclusive)
Cc1ccc(S(=O)(=O)N(C)CC(=O)NCCCc2ccccc2)cc1,EC50,[4],> 53 µM (inactive)
Cc1ccc(C(=O)NC(=S)NCC(=O)c2ccccc2)cc1,AC50,Cytochrome P450 3A4,8.91 µM (inconclusive)
same,AC50,Cytochrome P450 2C9,2.51 µM (inconclusive)
same,AC50,Cytochrome P450 1A2,2.24 µM (inconclusive)
O=C(Nc1ccc(F)cc1F)c1cc2ccccc2oc1=O,IC50,cells,39.7 µM (active)
O=C(N/N=C/c1ccc(Br)s1)c1ccncc1,IC50,cells,< 0.1 µM (active)
CC(C)OC(=O)CSc1nc(-c2ccc(F)cc2)nc2ccc(F)cc12,AC50,Cytochrome P450 2C9,0.0178 µM (inconclusive)
same,AC50,Cytochrome P450 2C19; read-out: AC50,0.112 µM (inconclusive)
COc1ccc(-c2[nH]ncc2CN2CCCCCCC2)c(OC)c1,IC50,cells,18.5 µM (active)
CN(C)c1ccc(/C=C/C(=O)c2ccc(O)cc2)cc1,EC50,[4],5.34 µM (active)
CCOC(=O)C1=C(O)/C(=C\c2ccc(OC)c(OC)c2)N=C1C,AC50,Cytochrome P450 3A4,15.8 µM (inconclusive)
same,AC50,Cytochrome P450 2C19; read-out: AC50,39.8 µM (inconclusive)
same,AC50,Cytochrome P450 1A2,8.91 µM (inconclusive)
CCOc1ccc(C(C)=O)cc1N1C(=O)C2C3C=CC(C3=C(C)C)C2C1=O (configuration not stated),AC50,Cytochrome P450 2C9,5.62 µM (inconclusive)
same,AC50,Cytochrome P450 2C19; read-out: AC50,25.1 µM (inconclusive)
same,AC50,Cytochrome P450 1A2,0.0631 µM (inconclusive)
Oc1ccc2c3c1O[C@H]1c4[nH]c5ccccc5c4C[C@]4(O)[C@H](C2)N(CC2CC2)CC[C@@]314,AC50,Cytochrome P450 3A4,0.01 µM (inconclusive)
